We go through 1 compound from patent US8378097B2, “3-(1,3-benzodioxol-5-yl)-6-(4-cyclopropylpiperazin-1-yl)-pyridazine, its salts and solvates and its use as histamine H3 receptor antagonist” (High Point Pharmaceuticals, LLC, priority 2006, dated 2013).

Structures can show the parent of a compound that is named as a salt.

Data set [1] in a line: tests with mice: intake of food. It is filed as in vivo. The conditions noted are these: in tests with mice.

Consider `c1cc2c(cc1-c1ccc(N3CCN(C4CC4)CC3)nn1)OCO2` [Example 1, 3-(1,3-Benzodioxol-5-yl)-6-(4-cyclopropylpiperazin-1-yl)pyridazine dihydrochloride], for which, in data set [1], the “effect on the intake of food” value is given as “reducing effect on the intake of food”. Besides, in “mutagenic activity test”, the mutagenic activity result is “No mutagenic activity”.
